Target: T1, Trypanothione reductase (TR) (Leishmania donovani, UniProt P39050)
T1 construct: gene TPR; native enzyme in cell extracts of L. donovani axenic amastigotes
Assay: DTNB-coupled colorimetric TR activity assay ([…] nm) in L. donovani cell extract; Lineweaver-Burk analysis
Assay type: biochemical

T1 sequence (P39050 whole entry): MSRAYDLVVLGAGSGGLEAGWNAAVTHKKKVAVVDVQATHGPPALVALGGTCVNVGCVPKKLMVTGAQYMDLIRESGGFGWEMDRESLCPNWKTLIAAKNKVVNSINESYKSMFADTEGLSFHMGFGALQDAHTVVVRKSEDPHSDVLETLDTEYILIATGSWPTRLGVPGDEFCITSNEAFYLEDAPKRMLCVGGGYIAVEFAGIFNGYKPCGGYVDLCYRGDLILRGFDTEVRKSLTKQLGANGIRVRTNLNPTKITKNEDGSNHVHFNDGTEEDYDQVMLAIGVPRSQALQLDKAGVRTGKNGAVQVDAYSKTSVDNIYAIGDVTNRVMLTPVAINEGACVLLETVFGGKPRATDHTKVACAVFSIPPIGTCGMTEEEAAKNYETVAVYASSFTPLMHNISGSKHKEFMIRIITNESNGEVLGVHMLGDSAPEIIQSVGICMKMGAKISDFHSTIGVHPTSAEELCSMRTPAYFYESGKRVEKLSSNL

## CSCC1CN(/N=C/c2ccc([N+](=O)[O-])o2)C(=O)O1 (stereo not shown) [NFT, nifuratel]
  Ki: 3.15 ± 0.5 µM
